According to patent US5602161A, “Tetrazolylphenyl pivalate derivatives and medicinal composition containing the same as effective component” (Wakamoto Pharmaceutical Co., Ltd., priority 1994, dated 1997):
pIC50: −log10 of the molar value. Structures can show the parent of a compound that is named as a salt.

What was measured:
[1] = Cytotoxicity test (MTT, three days); assay type: cell-based; conditions: mouse, l1210 cells, read-out: Survival rate; for viability at 72 h, 1 µM: final concentration 1 μM; for viability at 72 h, 5 µM: final concentration 5 μM; for viability at 72 h, 10 µM: final concentration 10 μM
Procedure: L1210 (lymphocytic leukemia, mouse) cells in a logarithmic growth phase were collected and washed twice with HBSS (Hanks' balanced salt solution). The L1210 cells were resuspended at 5.0×10^4 cells/ml in RPMI 1640 medium containing 10% heat-inactivated fetal bovine serum. The cell suspension was dispensed in 100 μl aliquots into 96 well multi-plate. Each of compounds to be tested was dissolved in dimethylsulfoxide at a concentration of 10 mM. The solutions were stepwise diluted with RPMI 1640 solution containing 10% heat-inactivated fetal bovine serum. Each of the diluted samples was dispensed in an amount of 10 μl well in the 96 well multi-plate containing L1210 cells and incubated for three days at 37° C. in humidified 5% CO2 -air mixture. To each of the wells, 10 μl of MTT (3-(4,5-dimethylthiazol-2-yl)-2,5-diphenyltetrazolium bromide)(5 mg/ml in phosphate buffer free of Ca^2+ and Mg^2+) was added. Cultivation was continued for additional five hours at 37° C. in humidified 5% CO2 -air mixture. To each of the wells, 100 μl of 20% SDS (sodium dodecyl sulfate) in 0.01N HCl was added to solubilize the MTT formazan.
Absorbance was measured at 630 nm as a reference wavelength and 570 nm as a measuring wavelength using Corona Electric MTP22 Microplate Photometer. The measurement was conducted three times for each of the samples to obtain an average value and a standard deviation. Survival rate was calculated by the following equation:
Survival rate (5)=[(absorbance of test sample)/(absobance of […]

human sputum elastase = target: T1, human sputum elastase (Homo sapiens, UniProt P08246); assay: Inhibitory effect on elastase (human sputum), spectrophotometric assay with MeOSuc-Ala-Ala-Pro-Val-pNA; assay type: biochemical; conditions: S: human sputum elastase; pH 8.0, 37° C.; read-out: IC50
T1 sequence (P08246 30-247 limits assumed): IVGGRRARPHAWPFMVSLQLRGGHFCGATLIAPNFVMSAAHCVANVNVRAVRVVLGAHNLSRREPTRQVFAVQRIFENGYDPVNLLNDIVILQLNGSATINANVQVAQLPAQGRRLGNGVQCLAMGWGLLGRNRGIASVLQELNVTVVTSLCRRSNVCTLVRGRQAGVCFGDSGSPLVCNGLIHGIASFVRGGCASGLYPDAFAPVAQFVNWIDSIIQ
Procedure: (§1) Namely, it is a spectrophotometric assay using the synthesized substrate, methoxysuccinyl-alanyl-alanyl- prolyl-valyl-p-nitroanilide(MeOSuc-Ala-Ala-Pro-Val-pNA, Cambridge research biochemical Co.) which has high specificity on neutrophil elastase.
(§2) 20 μl of a test compound of various concentrations and 20 μl of enzyme solution (13 unit/ml) were added to 400 μl of 0.1M sodium phosphate buffer (pH 8.0). The mixture was incubated at 37° C. for 5 min, and then 20 μl of the substrate was added to the mixture in a final volume of 460 μl. The reaction was conducted by incubating thus obtained mixture at 37° C. for 20 min. The reaction was stopped by the addition of 300 μl of 20% acetic acid into the reaction mixture, and then p-nitroanilide released was measured by the spectrophotometrically at 405 nm.
(§3) Inhibition percents of the test compounds were calculated by the following equation:
(§4) Inhibition %=[1-(OD 405 nm value of the testing sample-background)/(OD 405 nm value of the control-background)]×100

[2] = target: T2, human neutrophil elastase (Homo sapiens, UniProt P08246); assay: Inhibitory effect on elastase (human neutrophil), spectrophotometric assay with MeOSuc-Ala-Ala-Pro-Val-pNA; assay type: biochemical; conditions: N: human neutrophil elastase; pH 8.0, 37° C.; read-out: IC50
T2 construct: using elastase from human neutrophil or human sputum; from tissue; host or cells: human neutrophil
T2 sequence (P08246 30-247 limits assumed): T1 sequence (P08246 30-247 limits assumed)
Procedure: as §1, §2, §3, §4

SMILES | pIC50 (human sputum elastase) | pIC50 [2] | viability at 72 h, 1 µM [1] [%] | viability at 72 h, 5 µM [1] [%] | viability at 72 h, 10 µM [1] [%]
CC(C)c1ccc(-n2nnc(-c3ccc(OC(=O)C(C)(C)C)cc3)n2)cc1 [Example 6, 4-[2-(4-Isopropylphenyl)tetrazol-5-yl)phenyl pivalate] | 5.36 |  | 94.9 | 88.7 | 70.1
CC(C)(C)C(=O)Oc1ccc(-c2nnn(CC(=O)Nc3ccccc3)n2)cc1 [Example 11, 4-[2-(N-Phenylcarbamoylmethyl)tetrazol-5-yl]phenyl pivalate] |  | 6.07 |  |  | 
CC(C)(C)C(=O)Oc1ccc(-c2nnn(CC(=O)N3CCCCC3)n2)cc1 [Example 12, 4-[2-(Piperidinocarbonylmethyl)tetrazol-5-yl]phenyl pivalate] |  | 6.29 |  |  | 
CC(C)(C)C(=O)Oc1ccc(-c2nnn(CCc3ccccc3)n2)cc1 [Example 14, 4-[2-(2-Phenylethyl)tetrazol-5-yl]phenyl pivalate] |  | 7.12 |  |  | 
CC(C)(C)C(=O)Oc1ccc(-c2nnn(COCc3ccccc3)n2)cc1 [Example 15, 4-[2-(Benzyloxymethyl)tetrazol-5-yl]phenyl pivalate] |  | 7.03 |  |  | 
CC(C)(C)C(=O)Oc1ccc(-c2nnn(Cc3ccc(C(F)(F)F)cc3)n2)cc1 [Example 17, 4-[2-(4-Trifluoromethylbenzyl)tetrazol-5-yl]phenyl pivalate] |  | 7.00 |  |  | 
COc1ccc(COc2ccc(Cn3nnc(-c4ccc(OC(=O)C(C)(C)C)cc4)n3)cc2)cc1 [Example 18, 4-[2-[4-(4-Methoxybenzyloxy)benzyl]tetrazol-5-yl]phenyl pivalate] | 6.80 | 7.77 |  |  | 
COc1ccc(CCCn2nnc(-c3ccc(OC(=O)C(C)(C)C)cc3)n2)cc1 [Example 20, 4-[2-[3-(4-Methoxyphenyl)propyl]tetrazol-5-yl]phenyl pivalate] |  | 7.05 |  |  | 
COc1ccc(CCCCn2nnc(-c3ccc(OC(=O)C(C)(C)C)cc3)n2)cc1 [Example 21, 4-[2-[4-(4-Methoxyphenyl)butyl]tetrazol-5-yl]phenyl pivalate] |  | 7.21 |  |  | 
COc1ccc(COCCCCn2nnc(-c3ccccc3OC(=O)C(C)(C)C)n2)cc1 [Example 22, 2-[2-[4-(4-Methoxybenzyloxy)butyl]tetrazol-5-yl]phenyl pivalate] | 5.37 |  | 102 | 86.4 | 86.7
COC(=O)c1ccccc1Cn1nnc(-c2ccc(OC(=O)C(C)(C)C)cc2)n1 [Example 24, 4-[2-(2-Methoxycarbonylbenzyl)tetrazol-5-yl]phenyl pivalate] |  | 7.00 |  |  | 
CC(C)Cn1nnc(-c2ccc(OC(=O)C(C)(C)C)cc2)n1 [Example 37, 4-[2-(2-Methylpropyl)tetrazol-5-yl]phenyl pivalate] | 6.74 |  | 92.5 | 106 | 95.5
COc1ccc(COCCn2nnc(-c3ccc(OC(=O)C(C)(C)C)cc3)n2)cc1 [Example 41, 4-[2-[2-(4-Methoxybenzyloxy)ethyl]tetrazol-5-yl]phenyl pivalate] |  | 7.19 |  |  | 
CC(C)(C)C(=O)Oc1ccc(-c2nnn(C(C(=O)O)c3ccccc3)n2)cc1 (centres unmarked) [Example 69, 2-Phenyl-2-[5-(4-pivaloyloxyphenyl)tetrazol-2-yl]acetic acid] | 6.09 |  | 96.7 | 105 | 101
CC(C)(C)C(=O)Oc1ccc(-c2nnn(CCCCCO)n2)cc1 [Example 74, 4-[2-(5-Hydroxypentyl)tetrazol-5-yl]phenyl pivalate] |  | 7.01 |  |  | 
CC(C)(C)C(=O)Oc1ccc(-c2nnn(CC(=O)O)n2)cc1 [Example 80, 5-(4-Pivaloyloxyphenyl)-2-tetrazoleacetic acid] |  |  | 93.9 | 98.1 | 109
CCCN(C)c1ccc(Cn2nnc(-c3ccc(OC(=O)C(C)(C)C)cc3)n2)cc1 [Example 98, 4-[2-[4-(Methylpropylamino)benzyl]tetrazol-5-yl]phenyl pivalate] | 6.82 |  |  |  | 
CN(C)c1cccc(Cn2nnc(-c3ccc(OC(=O)C(C)(C)C)cc3)n2)c1 [Example 100, 4-[2-[3-(Dimethylamino)benzyl]tetrazol-5-yl]phenyl pivalate] | 6.60 |  |  |  | 
CN(C)c1ccccc1Cn1nnc(-c2ccc(OC(=O)C(C)(C)C)cc2)n1 [Example 101, 4-[2-[2-(Dimethylamino)benzyl]tetrazol-5-yl]phenyl pivalate] | 6.42 |  |  |  | 

Further lines, with some results ahead:

pIC50 (human sputum elastase) | pIC50 [2] | SMILES | viability at 72 h, 1 µM [1] [%] | viability at 72 h, 5 µM [1] [%] | viability at 72 h, 10 µM [1] [%]
6.77 |  | CC(C)(C)C(=O)Oc1ccc(-c2nnn(Cc3ccccc3)n2)cc1 [Example 9, 4-(2-Benzyltetrazol-5-yl)phenyl pivalate] | 93.9 | 100 | 98.1
 | 7.14 | COc1ccc(Cn2nnc(-c3ccc(OC(=O)C(C)(C)C)cc3)n2)cc1 [Example 13, 4-[2-(4-Methoxybenzyl)tetrazol-5-yl]phenyl pivalate] |  |  | 
 | 7.66 | COc1ccc(COCCCCn2nnc(-c3cccc(OC(=O)C(C)(C)C)c3)n2)cc1 [Example 23, 3-[2-[4-(4-Methoxybenzyloxy)butyl]tetrazol-5-yl]phenyl pivalate] | 104 | 102 | 94.3
 | 7.07 | COc1ccc(CCn2nnc(-c3ccc(OC(=O)C(C)(C)C)cc3)n2)cc1 [Example 44, 4-[2-[2-(4-Methoxyphenyl)ethyl]tetrazol-5-yl]phenyl pivalate] |  |  | 
 | 7.05 | CN(C)CCOc1ccc(Cn2nnc(-c3ccc(OC(=O)C(C)(C)C)cc3)n2)cc1 [Example 46, 4-[2-[4-(2-Dimethylaminoethoxy)benzyl]tetrazol-5-yl]phenyl pivalate Hydrochloride] |  |  | 
6.15 |  | COc1cc(-c2nnn(Cc3ccc(N(C)C)cc3)n2)ccc1OC(=O)C(C)(C)C [Example 48, 4-[2-[4-(Dimethylamino)benzyl]tetrazol-5-yl]-2-methoxyphenyl pivalate] | 99.4 | 94.6 | 86.1
6.15 |  | Cc1cc(-c2nnn(Cc3ccc(N(C)C)cc3)n2)ccc1OC(=O)C(C)(C)C [Example 49, 4-[2-[4-(Dimethylamino)benzyl]tetrazol-5-yl]-2-methylphenyl pivalate] | 103 | 105 | 110
7.25 |  | CC(C)(C)C(=O)Oc1ccc(-c2nnn(Cc3ccc(C(=O)O)cc3)n2)cc1 [Example 54, 4-[5-(4-Pivaloyloxyphenyl)tetrazol-2-ylmethyl]benzoic acid] | 101 | 107 | 100
6.89 |  | CC(C)[C@H](NC(=O)c1ccc(Cn2nnc(-c3ccc(OC(=O)C(C)(C)C)cc3)n2)cc1)C(=O)O [Example 67, N-[4-[5-(4-Pivaloyloxyphenyl)tetrazol-2-ylmethyl]benzoyl]-L-valine] | 92.2 | 100 | 90.1
 | 7.10 | CC(C)(C)C(=O)Oc1ccc(-c2nnn(Cc3ccc(O)cc3)n2)cc1 [Example 75, 4-[2-(4-Hydroxybenzyl)tetrazol-5-yl]phenyl pivalate] |  |  | 
7.04 |  | CC(C)(C)C(=O)Oc1ccc(-c2nnn(Cc3ccccc3N)n2)cc1 [Example 78, 4-[2-(2-Aminobenzyl)tetrazol-5-yl]phenyl pivalate] | 103 | 107 | 93.7
5.80 |  | CC(C)(C)C(=O)Oc1ccc(-c2nnn(CCN)n2)cc1 [Example 92, 4-[2-(2-Aminoethyl)tetrazol-5-yl]phenyl pivalate Hydrochloride] |  |  | 
 | 6.28 | CC(C)(C)C(=O)Oc1ccc(-c2nnn(CCCCC(=O)O)n2)cc1 [Example 93, 5-[5-(4-Pivaloyloxyphenyl)tetrazol-2-yl]valeric acid] |  |  | 
6.85 |  | CC(C)c1ccc(Cn2nnnc2-c2ccc(OC(=O)C(C)(C)C)cc2)cc1 [Example 96, 4-[1-(4-Isopropylbenzyl)tetrazol-5-yl]phenyl pivalate] |  |  | 
6.82 |  | CCN(C)c1ccc(Cn2nnc(-c3ccc(OC(=O)C(C)(C)C)cc3)n2)cc1 [Example 97, 4-[2-[4-(Ethylmethylamino)benzyl]tetrazol-5-yl]phenyl pivalate] |  |  | 
6.47 |  | CN(C)c1ccc(Cn2nnnc2-c2ccc(OC(=O)C(C)(C)C)cc2)cc1 [Example 99, 4-[1-[4-(Dimethylamino)benzyl]tetrazol-5-yl]phenyl pivalate] |  |  | 
